Test systems include KM-20L2; SNB-78; DLD-1; DMS-273; XF498; HOP-18; RXF 631; BT-549; Hs-578T.
Assay in all cases: DTP human tumour cell line panel, 48 h

Structures are written as SMILES.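 In this assay, cells in 96-well plates receive the compound at five concentrations for 48 hours. Endpoints are linearly interpolated between the surrounding concentrations. Here, GI50 denotes the concentration required for 50% inhibition of growth.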 The source made the active and inactive calls. Rule as the data show it: active = GI50 up to about 1.1 µM and inactive = higher.

For orientation: GI50 means the concentration giving 50% growth inhibition. Consider `COC(=O)C(=O)C(C(=O)C(=O)Nc1cccc(C(C)=O)c1)c1nc2ccc([N+](=O)[O-])cc2nc1O` (stereo unspecified), for which the GI50 with KM-20L2, with SNB-78, in the assay on DLD-1, in the assay on DMS-273, with XF498 and in the assay with HOP-18 was > 100 µM (inactive) throughout. Moreover, the GI50 with RXF 631 is > 100 µM (inactive).

For `C[C@]12CCc3nonc3C1CC[C@@H]1C2CC[C@@]2(C)C1CC[C@@H]2O` (stereo partly specified), the GI50 in the assay on KM-20L2, in the assay on SNB-78, with DLD-1, with DMS-273, in the assay with XF498 and with HOP-18 was > 100 µM (inactive) throughout. The GI50 in the assay on RXF 631 was > 100 µM (inactive).

Consider `Cc1ccc(NC(=O)CCC(=O)C2CC(=O)CCC2=O)cc1C` (stereo unspecified), for which the GI50 in the assay with KM-20L2, in the assay on SNB-78, with DLD-1, with DMS-273, in the assay on HOP-18 and with RXF 631 was > 100 µM (inactive) each time.

Consider `CN(/N=C/c1ccnc2ccccc12)c1c([N+](=O)[O-])cc([N+](=O)[O-])cc1[N+](=O)[O-]`, for which the GI50 in the assay with KM-20L2 was > 100 µM (inactive); with SNB-78, 67.3 µM (inactive); in the assay on DLD-1 it was 37.4 µM (inactive); in the assay on DMS-273, > 100 µM (inactive); in the assay with XF498, 70.1 µM (inactive); with HOP-18, > 100 µM (inactive).

Take `FC(F)(F)c1nc(Br)[nH]c1C(F)(F)F`: the GI50 is 64.6 µM (inactive) in the assay on KM-20L2; > 100 µM (inactive) with SNB-78; > 100 µM (inactive) with DLD-1; > 100 µM (inactive) in the assay on DMS-273; > 100 µM (inactive) in the assay with XF498; 28.8 µM (inactive) with HOP-18. For the same compound, the GI50 in the assay with RXF 631 was 61.4 µM (inactive).

Regarding `COc1ccccc1OCc1nnc(SCC(=O)O)n1-c1ccccc1`, the GI50 in the assay with KM-20L2, in the assay on SNB-78, in the assay on DLD-1, in the assay with DMS-273 and in the assay with XF498 was > 100 µM (inactive) each time.

Regarding `CC(=O)O[C@H]1CC[C@@]2(C)C(=CC[C@@H]3C2CC[C@]2(C)Nc4oncc4CC32)C1` (stereo partly specified), the GI50 in the assay on KM-20L2 was 90.6 µM (inactive); in the assay on DLD-1, 46 µM (inactive); in the assay on DMS-273 it was 26.9 µM (inactive); in the assay on XF498, 31.5 µM (inactive); in the assay on RXF 631, 33.5 µM (inactive).

Consider `Cn1cc2ccccc2c1-c1nc(F)nc(Oc2ccc3c(c2)CC[C@@H]2C3CC[C@@]3(C)C2C[C@H](O)[C@@H]3O)n1` (stereo partly specified), for which the GI50 with KM-20L2 was 15.8 µM (inactive); in the assay on SNB-78, 19.6 µM (inactive); with DLD-1 it was 10.3 µM (inactive); in the assay with DMS-273, 10.3 µM (inactive); in the assay with XF498, 22.4 µM (inactive); in the assay with HOP-18, 22.3 µM (inactive).

Consider `O=C1c2ccc3c4ccccc4n(Cc4ccccc4)c3c2C(=O)N1c1ccccc1`, for which the GI50 in the assay with KM-20L2 is 20.9 µM (inactive); in the assay with SNB-78, 27.7 µM (inactive); with DLD-1, 17 µM (inactive); in the assay with DMS-273, 12.4 µM (inactive); in the assay with HOP-18 it was 12.1 µM (inactive); in the assay with RXF 631, 14.5 µM (inactive).

For `NC(=O)c1ccccc1NC(=O)C(=O)Cc1nc2ccccc2nc1O`, the GI50 with KM-20L2, with DLD-1, with DMS-273 and in the assay with RXF 631 was > 100 µM (inactive) each time.

Regarding `CCOC(=O)CC(NCc1ccc(/N=C/c2nc3ccc(C(F)(F)F)cc3nc2-c2ccccc2)cc1)C(=O)OCC` (stereo unspecified), the GI50 in the assay on KM-20L2 was > 54.7 µM (inactive); in the assay on SNB-78, > 72.1 µM (inactive); in the assay on DLD-1, > 100 µM (inactive); in the assay with DMS-273 it was > 64.1 µM (inactive); in the assay with XF498 it was 14.2 µM (inactive); in the assay with HOP-18, 24.7 µM (inactive).

For `CC(C)c1cccc(C(C)C)c1NC1=CC(=O)C(=O)c2ccccc21`, the GI50 in the assay with KM-20L2, in the assay on SNB-78, with DLD-1, with DMS-273, in the assay on HOP-18 and in the assay with RXF 631 was > 100 µM (inactive) throughout.

As to `CCCCCN(CCCCC)C(=O)[C@H](CCC(=O)OCc1ccccc1)NC(=O)c1cc2ccccc2[nH]1`, the GI50 in the assay with KM-20L2, with SNB-78, in the assay on DLD-1, in the assay with DMS-273, in the assay with HOP-18 and in the assay on RXF 631 was > 100 µM (inactive) in each case.

For the compound `COC(=O)[C@H]1C2CC[C@@H]3C45C[C@@H](c6ccoc6)O[C@@H]4O[C@@H](O2)C31CCC5C` (stereo partly specified), the GI50 was > 100 µM (inactive) with KM-20L2; 25.7 µM (inactive) in the assay on SNB-78; > 100 µM (inactive) in the assay on DLD-1; > 100 µM (inactive) in the assay with DMS-273; > 100 µM (inactive) in the assay on XF498; > 100 µM (inactive) in the assay with HOP-18.

For `Clc1ccc(CNc2nc3ccccc3nc2-c2cccs2)c(Cl)c1`, the GI50 is 49.3 µM (inactive) in the assay with KM-20L2; > 100 µM (inactive) in the assay on SNB-78; 86.7 µM (inactive) in the assay on DMS-273; 26.7 µM (inactive) with XF498; > 100 µM (inactive) in the assay with HOP-18; 67.3 µM (inactive) in the assay with RXF 631.

For the compound `COc1ccc2nc3ccccc3c(NCCCCN(C)CCCl)c2c1`, the GI50 is < 0.01 µM (active) in the assay with BT-549; 0.0277 µM (active) with KM-20L2; 0.0596 µM (active) with SNB-78; 0.0471 µM (active) in the assay on DLD-1; 0.0218 µM (active) in the assay with DMS-273; 0.0369 µM (active) in the assay on XF498. Further, in the assay on RXF 631, the GI50 is < 0.0185 µM (active).

In the case of `COC(=O)C(C(=O)C(=O)Nc1cccc([N+](=O)[O-])c1)c1nc2ccc([N+](=O)[O-])cc2nc1O` (stereo unspecified), the GI50 in the assay on KM-20L2, with SNB-78, in the assay with DLD-1, in the assay on DMS-273, in the assay on XF498 and with HOP-18 was > 100 µM (inactive) in each case. Moreover, the GI50 in the assay on RXF 631 was > 100 µM (inactive).

In the case of `O=C(Nc1ccc(C(F)(F)F)cc1[N+](=O)[O-])C(=O)C1NC(=S)NC1=O` (stereo unspecified), the GI50 was > 100 µM (inactive) in the assay with KM-20L2; > 100 µM (inactive) in the assay on SNB-78; > 100 µM (inactive) in the assay with DLD-1; > 100 µM (inactive) in the assay on DMS-273; > 100 µM (inactive) with HOP-18; 82.2 µM (inactive) in the assay with RXF 631.

Take `COc1cc([C@@H]2OCC3C(c4ccc5c(c4)OCO5)OCC32)cc(OC)c1OC` (stereo partly specified): the GI50 is > 100 µM (inactive) in the assay with KM-20L2; > 100 µM (inactive) with SNB-78; > 100 µM (inactive) in the assay on DLD-1; 76.4 µM (inactive) with DMS-273; 52.6 µM (inactive) with XF498.

As for `COc1cc2c(c(OC)c1OC)-c1ccc(SC)c(=O)cc1[C@@H](NC(=O)C(F)(F)F)CC2`, the GI50 in the assay with Hs-578T is < 0.01 µM (active); in the assay with BT-549, 0.0118 µM (active); with KM-20L2, < 0.01 µM (active); in the assay on DLD-1 it was < 0.01 µM (active); in the assay with DMS-273, < 0.01 µM (active); with XF498, 0.0585 µM (active). Also, in the assay on HOP-18, the GI50 was 26.5 µM (inactive).

These data come from ChEMBL document CHEMBL1201862, “PubChem BioAssay data set” (2004).
